Active and inactive are the calls of the source. The calls are words filed in the database; no cut-off is given here.
Legend:
[1] = biological target: Histone deacetylase 2 (Homo sapiens, UniProt Q92769); experiment: Inhibition of HDAC2 (unknown origin) assessed as residual activity at 1.37 x 10^-8M (reference value: 99.81%); settings: dose 1.37 10^-8M
[2] = biological target: T1, Protein deacetylase HDAC6 (Homo sapiens) (UniProt Q9UBN7); experiment: Inhibition of HDAC6 (unknown origin) using p53 residues 379 to 382 [RHKK(Ac)] as fluorogenic substrate assessed as residual activity at 3.70 x 10^-7M (reference value: 101.06%); settings: dose 3.7 10^-7M
T1 sequence (whole entry): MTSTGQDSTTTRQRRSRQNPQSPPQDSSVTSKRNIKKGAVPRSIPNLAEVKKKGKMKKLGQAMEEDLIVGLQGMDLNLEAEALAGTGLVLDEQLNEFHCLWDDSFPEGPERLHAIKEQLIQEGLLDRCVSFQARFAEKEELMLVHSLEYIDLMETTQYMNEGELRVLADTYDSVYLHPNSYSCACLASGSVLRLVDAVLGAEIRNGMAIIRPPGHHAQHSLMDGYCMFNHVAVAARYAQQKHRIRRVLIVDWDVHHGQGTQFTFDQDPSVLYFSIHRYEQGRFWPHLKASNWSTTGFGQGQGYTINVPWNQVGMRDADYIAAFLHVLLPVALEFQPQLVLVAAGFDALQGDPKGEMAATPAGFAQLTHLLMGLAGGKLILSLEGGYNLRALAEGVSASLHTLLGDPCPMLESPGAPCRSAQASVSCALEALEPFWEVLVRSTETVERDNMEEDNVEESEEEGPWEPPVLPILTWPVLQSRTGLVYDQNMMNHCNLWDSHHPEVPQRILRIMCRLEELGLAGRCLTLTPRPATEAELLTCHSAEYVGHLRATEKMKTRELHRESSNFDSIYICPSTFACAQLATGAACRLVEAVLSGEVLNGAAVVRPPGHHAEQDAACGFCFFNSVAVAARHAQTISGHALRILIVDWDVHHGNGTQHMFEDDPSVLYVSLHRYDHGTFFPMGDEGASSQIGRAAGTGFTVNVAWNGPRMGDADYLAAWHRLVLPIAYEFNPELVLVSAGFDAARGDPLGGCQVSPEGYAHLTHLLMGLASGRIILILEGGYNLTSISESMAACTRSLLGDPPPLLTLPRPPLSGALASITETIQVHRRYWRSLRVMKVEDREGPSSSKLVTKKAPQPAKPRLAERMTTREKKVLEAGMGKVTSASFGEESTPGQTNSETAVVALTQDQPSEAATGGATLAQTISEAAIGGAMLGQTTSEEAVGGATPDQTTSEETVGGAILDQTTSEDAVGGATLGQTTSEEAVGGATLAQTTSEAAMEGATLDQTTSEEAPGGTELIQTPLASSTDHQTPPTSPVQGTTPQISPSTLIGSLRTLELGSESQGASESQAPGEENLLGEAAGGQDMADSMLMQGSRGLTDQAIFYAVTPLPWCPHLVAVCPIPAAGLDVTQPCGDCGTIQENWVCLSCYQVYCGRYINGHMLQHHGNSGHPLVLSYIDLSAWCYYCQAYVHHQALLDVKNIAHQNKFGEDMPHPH

[3] = biological target: T1, Protein deacetylase HDAC6 (Homo sapiens); experiment: Inhibition of HDAC6 (unknown origin) using p53 residues 379 to 382 [RHKK(Ac)] as fluorogenic substrate assessed as residual activity at 1 x 10^-5M (reference value: 101.06%); settings: dose 1.0 10^-5M
[4] = tested on: K562; experiment: cells; settings: Homo sapiens
Description: Antiproliferative activity against human K562 cells assessed as inhibition of cell growth by MTT assay

[5] = biological target: Histone deacetylase 4 (Homo sapiens) (UniProt P56524); experiment: Inhibition of HDAC4 (unknown origin) assessed as residual activity at 1.23 x 10^-7M (reference value: 98.90%); settings: dose 1.23 10^-7M
Chain of Histone deacetylase 4 (Homo sapiens) (P56524 whole entry, the tested form may be a part): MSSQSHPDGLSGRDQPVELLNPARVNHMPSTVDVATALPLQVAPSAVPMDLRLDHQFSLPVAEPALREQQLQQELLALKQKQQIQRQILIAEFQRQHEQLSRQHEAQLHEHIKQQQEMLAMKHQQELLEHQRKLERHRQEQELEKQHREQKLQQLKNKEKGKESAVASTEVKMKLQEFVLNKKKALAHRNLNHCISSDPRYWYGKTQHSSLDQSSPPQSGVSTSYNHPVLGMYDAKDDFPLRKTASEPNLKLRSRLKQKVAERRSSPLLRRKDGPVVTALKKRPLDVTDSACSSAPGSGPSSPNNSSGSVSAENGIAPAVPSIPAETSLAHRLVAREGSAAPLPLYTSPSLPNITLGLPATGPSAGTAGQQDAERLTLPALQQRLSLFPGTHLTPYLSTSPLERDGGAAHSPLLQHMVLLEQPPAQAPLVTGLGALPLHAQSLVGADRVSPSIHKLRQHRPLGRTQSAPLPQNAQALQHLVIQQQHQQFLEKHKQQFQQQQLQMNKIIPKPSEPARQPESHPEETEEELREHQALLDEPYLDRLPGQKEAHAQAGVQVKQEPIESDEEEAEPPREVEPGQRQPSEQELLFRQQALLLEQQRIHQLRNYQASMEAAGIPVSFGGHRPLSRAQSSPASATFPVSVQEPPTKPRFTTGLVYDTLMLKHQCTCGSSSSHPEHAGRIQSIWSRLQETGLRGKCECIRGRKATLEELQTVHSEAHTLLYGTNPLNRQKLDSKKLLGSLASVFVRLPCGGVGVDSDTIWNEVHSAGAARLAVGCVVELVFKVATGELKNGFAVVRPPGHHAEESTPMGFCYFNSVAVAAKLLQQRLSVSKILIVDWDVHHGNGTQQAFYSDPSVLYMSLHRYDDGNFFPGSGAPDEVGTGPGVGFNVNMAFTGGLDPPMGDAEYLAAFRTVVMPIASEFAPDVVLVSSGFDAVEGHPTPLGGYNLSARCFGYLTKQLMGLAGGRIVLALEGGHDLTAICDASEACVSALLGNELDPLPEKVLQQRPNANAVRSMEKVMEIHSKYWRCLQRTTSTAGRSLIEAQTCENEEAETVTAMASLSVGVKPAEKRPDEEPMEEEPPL

[6] = biological target: T1, Protein deacetylase HDAC6 (Homo sapiens); experiment: Inhibition of HDAC6 (unknown origin) using p53 residues 379 to 382 [RHKK(Ac)] as fluorogenic substrate assessed as residual activity at 1.11 x 10^-6M (reference value: 101.06%); settings: dose 1.1 10^-6M
[7] = biological target: T1, Protein deacetylase HDAC6 (Homo sapiens); experiment: Inhibition of HDAC6 (unknown origin) using p53 residues 379 to 382 [RHKK(Ac)] as fluorogenic substrate assessed as residual activity at 4.12 x 10^-8M (reference value: 101.06%); settings: dose 4.12 10^-8M
[8] = biological target: Histone deacetylase 4 (Homo sapiens) (UniProt P56524); experiment: Inhibition of HDAC4 (unknown origin) assessed as residual activity at 1.37 x 10^-8M (reference value: 98.90%); settings: dose 1.37 10^-8M
[9] = biological target: T2, Histone deacetylase 8 (Homo sapiens) (UniProt Q9BY41); experiment: Inhibition of HDAC8 (unknown origin) assessed as residual activity at 3.33 x 10^-6M (reference value: 100%); settings: dose 3.33 10^-6M
T2 sequence (whole entry): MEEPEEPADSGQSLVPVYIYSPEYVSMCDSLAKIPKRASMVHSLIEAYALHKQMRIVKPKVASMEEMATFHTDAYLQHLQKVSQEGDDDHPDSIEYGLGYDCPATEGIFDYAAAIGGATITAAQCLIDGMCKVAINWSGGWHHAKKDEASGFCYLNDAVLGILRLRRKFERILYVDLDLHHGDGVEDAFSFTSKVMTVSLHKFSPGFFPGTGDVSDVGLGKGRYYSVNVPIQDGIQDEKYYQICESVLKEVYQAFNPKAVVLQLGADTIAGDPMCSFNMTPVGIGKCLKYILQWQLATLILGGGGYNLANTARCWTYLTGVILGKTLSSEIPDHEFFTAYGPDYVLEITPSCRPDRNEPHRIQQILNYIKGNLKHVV

[10] = tested on: HL-60; experiment: Induction of apoptosis in human HL-60 cells assessed as nuclear fragmentation at 0.5 to 1 times IC50 by DAPI staining based microscopic analysis; format: functional, cell-based
[11] = biological target: Histone deacetylase 9 (Homo sapiens) (UniProt Q9UKV0); experiment: Inhibition of HDAC9 (unknown origin) assessed as residual activity at 3.70 x 10^-7M (reference value: 97.55%); settings: dose 3.7 10^-7M
Chain of Histone deacetylase 9 (Homo sapiens) (Q9UKV0 whole entry): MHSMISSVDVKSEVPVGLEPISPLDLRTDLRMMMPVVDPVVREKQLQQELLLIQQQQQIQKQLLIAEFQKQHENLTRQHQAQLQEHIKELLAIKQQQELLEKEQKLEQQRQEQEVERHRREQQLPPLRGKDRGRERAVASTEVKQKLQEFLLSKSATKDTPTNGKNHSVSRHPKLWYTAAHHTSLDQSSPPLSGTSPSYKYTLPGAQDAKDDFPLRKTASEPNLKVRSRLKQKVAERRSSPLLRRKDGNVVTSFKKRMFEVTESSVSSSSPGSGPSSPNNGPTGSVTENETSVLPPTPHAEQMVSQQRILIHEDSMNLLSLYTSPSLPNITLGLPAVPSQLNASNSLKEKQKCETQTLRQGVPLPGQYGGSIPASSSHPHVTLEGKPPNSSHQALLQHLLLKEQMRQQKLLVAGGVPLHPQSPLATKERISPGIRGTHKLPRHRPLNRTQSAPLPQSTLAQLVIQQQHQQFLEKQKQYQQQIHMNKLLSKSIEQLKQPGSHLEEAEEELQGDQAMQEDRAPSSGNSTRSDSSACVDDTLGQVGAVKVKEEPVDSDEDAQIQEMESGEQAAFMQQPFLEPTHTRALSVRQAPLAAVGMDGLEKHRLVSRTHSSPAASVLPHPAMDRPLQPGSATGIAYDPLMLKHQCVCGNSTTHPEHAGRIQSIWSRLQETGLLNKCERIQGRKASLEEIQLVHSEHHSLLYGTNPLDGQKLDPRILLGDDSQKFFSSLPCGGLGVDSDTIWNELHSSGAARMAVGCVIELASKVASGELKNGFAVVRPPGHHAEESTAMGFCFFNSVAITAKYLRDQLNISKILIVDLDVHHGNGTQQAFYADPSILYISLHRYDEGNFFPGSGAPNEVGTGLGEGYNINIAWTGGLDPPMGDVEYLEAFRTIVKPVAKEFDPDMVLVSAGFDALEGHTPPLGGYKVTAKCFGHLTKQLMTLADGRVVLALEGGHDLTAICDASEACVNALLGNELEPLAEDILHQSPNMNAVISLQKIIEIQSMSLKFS

[12] = biological target: Histone deacetylase 9 (Homo sapiens) (UniProt Q9UKV0); experiment: Inhibition of HDAC9 (unknown origin) assessed as residual activity at 4.57 x 10^-9M (reference value: 97.55%); settings: dose 4.57 10^-9M

Chain of Histone deacetylase 2 (Q92769 whole entry, the tested form may be a part): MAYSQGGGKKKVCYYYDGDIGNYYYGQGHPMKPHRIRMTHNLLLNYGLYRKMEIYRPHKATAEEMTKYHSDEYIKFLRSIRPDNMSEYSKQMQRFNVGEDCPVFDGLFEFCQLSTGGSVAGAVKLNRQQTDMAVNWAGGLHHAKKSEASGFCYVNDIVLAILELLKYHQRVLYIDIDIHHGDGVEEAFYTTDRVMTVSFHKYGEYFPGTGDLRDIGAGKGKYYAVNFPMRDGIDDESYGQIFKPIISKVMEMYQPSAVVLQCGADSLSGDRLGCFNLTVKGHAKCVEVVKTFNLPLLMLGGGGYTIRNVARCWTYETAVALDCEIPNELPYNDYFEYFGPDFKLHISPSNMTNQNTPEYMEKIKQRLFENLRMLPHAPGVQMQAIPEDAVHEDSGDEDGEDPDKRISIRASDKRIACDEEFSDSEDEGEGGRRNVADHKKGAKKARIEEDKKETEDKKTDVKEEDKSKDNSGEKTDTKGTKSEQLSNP

## NC(=O)c1cccc2[nH]c(-c3ccc(NCc4ccc(C(=O)Nc5ccccc5N)cc4)cc3)nc12
[1]
  Activity: 86.2%
[2]
  Activity: 101%
[3]
  Activity: 107%
[4]
  IC50: 1210 nM
[5]
  Activity: 85%
[6]
  Activity: 79.8%
[7]
  Activity: 99.2%
[8]
  Activity: 96.3%
[9]
  Activity: 96.9%
[10]
  Activity: inactive
[11]
  Activity: 92.6%
[12]
  Activity: 82.9%
